The test system of assay [1] is PDGFR-β. Briefly: Yeast growth assay, selection of specific RTK inhibition (OD 600 nm). In kind it is cell-based, human. The note with it: 50 µM in the yeast culture. The text has this: (§1) Selection of specific inhibition of Receptor Tyrosine Kinase activity in yeast.
Assay [2] concerns the target T1, RET (Homo sapiens, UniProt P07949).
T1 construct: preferably cytoplasmic domains of RTKs or fragments thereof, are expressed in the cytoplasm of host cells; expressed in transfected cells; host or cells: yeast (S. cerevisiae)
T1 sequence (P07949 658-1114 limits assumed): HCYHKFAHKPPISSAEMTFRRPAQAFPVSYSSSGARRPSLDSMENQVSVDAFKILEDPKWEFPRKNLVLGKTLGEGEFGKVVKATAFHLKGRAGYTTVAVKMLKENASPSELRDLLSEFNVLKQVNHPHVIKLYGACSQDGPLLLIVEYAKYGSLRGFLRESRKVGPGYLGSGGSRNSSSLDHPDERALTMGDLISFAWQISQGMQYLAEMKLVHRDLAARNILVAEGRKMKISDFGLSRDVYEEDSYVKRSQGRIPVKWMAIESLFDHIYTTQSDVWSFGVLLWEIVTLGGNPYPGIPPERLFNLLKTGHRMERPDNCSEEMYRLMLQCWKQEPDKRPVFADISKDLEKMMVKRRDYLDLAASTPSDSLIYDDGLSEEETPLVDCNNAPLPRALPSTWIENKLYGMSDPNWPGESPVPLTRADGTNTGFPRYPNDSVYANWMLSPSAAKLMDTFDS
Described as above. In kind it is cell-based. The following applies: 50 µM in the yeast culture.
Source text: as §1

Assay [3] has as its target T2, KIT mutant D816F (Homo sapiens, UniProt P10721, D816F).
T2 construct: preferably cytoplasmic domains of RTKs or fragments thereof, are expressed in the cytoplasm of host cells; expressed in transfected cells; host or cells: S. cerevisiae RLY09/Δptp1
As to the kind of experiment: Yeast cell-based growth rescue assay, KIT mutant. The note with it: 0.2 to 100 µM; yeast strain RLY09/Δptp1; PD180970 effect at the highest concentrations. The source says: (§2) Expression of wild-type KIT confers only a slight slow growth phenotype in yeast (in the RLY07 strain, under the full-length GAL promoter). Various mutations that occur in human GISTs or in mastocytosis were introduced in the Kit construct expressed in yeast. Expression of the various mutants caused reduced yeast growth but in various extent, likely correlating with various extent of activity (see graphs Figures 7a and 7b) . […] The yeast strain expressing the various Kit proteins in this experiment, was […] which all the Kit proteins produce a similar slow growth phenotype (see values of the window vector/RTK). The starting OD was optimized to obtain windows as similar as possible.

Assay [4] addresses T3, KIT mutant D816V (Homo sapiens, UniProt P10721, D816V).
T3 construct: preferably cytoplasmic domains of RTKs or fragments thereof, are expressed in the cytoplasm of host cells; expressed in transfected cells; host or cells: S. cerevisiae RLY09/Δptp1
As to the kind of experiment: Yeast cell-based growth rescue assay, KIT mutant. The following applies: 0.2 to 100 µM; yeast strain RLY09/Δptp1; PD180970 effect at the highest concentrations.
Source text: as §2

The target in assay [5] is T4, KIT mutant D816Y (Homo sapiens, UniProt P10721, D816Y).
T4 construct: preferably cytoplasmic domains of RTKs or fragments thereof, are expressed in the cytoplasm of host cells; expressed in transfected cells; host or cells: S. cerevisiae RLY09/Δptp1
T4 sequence (P10721 546-976 D816Y limits assumed): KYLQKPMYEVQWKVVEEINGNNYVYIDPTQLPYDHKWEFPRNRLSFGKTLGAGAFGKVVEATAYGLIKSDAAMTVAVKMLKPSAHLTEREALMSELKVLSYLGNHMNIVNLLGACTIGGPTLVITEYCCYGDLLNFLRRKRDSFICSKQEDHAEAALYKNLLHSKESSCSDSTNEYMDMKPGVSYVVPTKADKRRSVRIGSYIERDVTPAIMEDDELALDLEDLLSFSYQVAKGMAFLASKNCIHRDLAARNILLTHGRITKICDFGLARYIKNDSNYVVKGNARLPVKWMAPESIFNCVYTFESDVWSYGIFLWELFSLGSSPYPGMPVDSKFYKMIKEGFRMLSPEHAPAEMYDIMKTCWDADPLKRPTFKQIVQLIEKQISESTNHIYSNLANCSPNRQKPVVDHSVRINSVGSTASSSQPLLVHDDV
Briefly: Yeast cell-based growth rescue assay, KIT mutant. The note with it: 0.2 to 100 µM; yeast strain RLY09/Δptp1; PD180970 effect at the highest concentrations.
Source text: as §2

For assay [6], the target named is D816V mutation (Homo sapiens, UniProt P10721, D816V). The following applies: literature (29), cited from earlier work.
Sequence of D816V mutation (P10721 26-976 D816V): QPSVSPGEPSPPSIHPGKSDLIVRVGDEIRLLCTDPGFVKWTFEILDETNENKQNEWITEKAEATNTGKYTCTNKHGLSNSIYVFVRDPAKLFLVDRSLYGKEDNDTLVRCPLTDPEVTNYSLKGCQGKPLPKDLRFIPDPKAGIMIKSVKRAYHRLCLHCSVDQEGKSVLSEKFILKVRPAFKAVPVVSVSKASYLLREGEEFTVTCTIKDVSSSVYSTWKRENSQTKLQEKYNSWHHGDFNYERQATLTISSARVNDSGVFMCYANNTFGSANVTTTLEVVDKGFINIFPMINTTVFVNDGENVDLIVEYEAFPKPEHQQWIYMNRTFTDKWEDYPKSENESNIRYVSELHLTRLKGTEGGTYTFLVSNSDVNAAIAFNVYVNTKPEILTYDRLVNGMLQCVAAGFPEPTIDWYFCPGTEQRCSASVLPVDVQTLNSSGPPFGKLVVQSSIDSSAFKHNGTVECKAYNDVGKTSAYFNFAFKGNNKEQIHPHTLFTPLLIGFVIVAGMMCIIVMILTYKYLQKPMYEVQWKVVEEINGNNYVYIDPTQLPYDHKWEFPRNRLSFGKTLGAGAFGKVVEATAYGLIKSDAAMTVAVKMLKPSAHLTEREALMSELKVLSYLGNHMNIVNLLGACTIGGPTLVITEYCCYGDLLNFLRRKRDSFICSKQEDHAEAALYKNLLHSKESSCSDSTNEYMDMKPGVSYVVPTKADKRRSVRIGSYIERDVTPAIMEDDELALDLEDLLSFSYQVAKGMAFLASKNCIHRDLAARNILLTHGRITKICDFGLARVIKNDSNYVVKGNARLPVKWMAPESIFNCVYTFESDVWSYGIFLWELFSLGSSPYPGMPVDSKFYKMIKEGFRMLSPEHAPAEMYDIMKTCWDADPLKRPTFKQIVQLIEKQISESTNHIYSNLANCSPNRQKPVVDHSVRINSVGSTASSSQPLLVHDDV
The test system of assay [7] is HMC1.1. The note with it: human cell line HMC1.1 expressing V560G mutation; literature (29); cited from earlier work.
The target in assay [8] is K642E (Homo sapiens, UniProt P10721, K642E). The note with it: like wt KIT, literature (25); cited from earlier work.
Sequence of K642E (P10721 26-976 K642E): as the sequence (P10721 26-976 D816V) above, with K617E, V791D counted along it
The target in assay [9] is N822H (Homo sapiens, UniProt P10721, N822H). The following applies: like wt KIT, literature (25); cited from earlier work.
Sequence of N822H (P10721 26-976 N822H): as the sequence (P10721 26-976 D816V) above, with V791D, N797H counted along it
Assay [10] deals with HMC-1 cells. The note with it: literature (23); cited from earlier work.
For assay [11] the following is noted: patients with nonsmall cell lung cancer; cited from earlier work.

These results are taken from patent EP1715059A1, “Method for the identification of possibly harmful receptor tyrosine kinase (RTK) mutations and of inhibitors or medication directed against RTK mutants” (Esbatech AG, priority 2005, dated 2006).

Structures are written as SMILES. Counter-ions that a name gives are not always drawn. Like-named read-outs stand apart in the source and are kept apart here.

T3 sequence (P10721 546-976 D816V limits assumed): as the sequence (P10721 546-976 D816Y limits assumed) above, with Y271V counted along it
T2 sequence (P10721 546-976 D816F limits assumed): as the sequence (P10721 546-976 D816Y limits assumed) above, with Y271F counted along it

Take `Cc1ccc(NC(=O)c2ccc(CN3CCN(C)CC3)cc2)cc1Nc1nccc(-c2cccnc2)n1` [Gleevec, imatinib mesylate]: the “restores growth of PDGFR-β-expressing yeast cells” value in [1] was “specifically restores growth”. The “restores growth of cells expressing RET” value in assay [2] is “not growth of cells expressing RET”. The “sensitivity of mutant D816F in yeast (growth rescue)” value in [3] is given as “resistant”. Moreover, in [4], the “sensitivity of mutant D816V in yeast (growth rescue)” value is “resistant”. Moreover, the “sensitivity of mutant D816Y in yeast (growth rescue)” value in [5] was “resistant”. In addition, the figures for the “resistance of D816V mutant to inhibitor” value in assay [6] and in assay [6] (listed as STI571) were “resistant” and “resistance”, respectively. Moreover, in [7], the apoptosis entry is listed as “induce apoptosis”. The “sensitive in vitro (concentration)” value in [8] and in assay [9] was 100 to 200 nM each time.
Consider `Cc1cc(Nc2ncc3cc(-c4c(Cl)cccc4Cl)c(=O)n(C)c3n2)ccc1F` [PD180970], for which the “sensitivity of mutant D816F in yeast (growth rescue)” value in assay [3] is “slight effect”. The “sensitivity of mutant D816V in yeast (growth rescue)” value in assay [4] was “slight effect”. The “sensitivity of mutant D816Y in yeast (growth rescue)” value in assay [5] is “slight effect”. The “resistance of D816V mutant to inhibitor” value in [6] is on record as “resistant”. In assay [10], the KIT phosphorylation entry is listed as “inhibits” and the cell proliferation entry is “inhibits”.
Take `COc1cc2ncnc(Nc3ccc(F)c(Cl)c3)c2cc1OCCCN1CCOCC1` [gefitinib]: the “patients have a rapid and often dramatic clinical response” value in assay [11] is recorded as 10%.
